Measured values reported in patent US20250281424A1 (New York Blood Center, Inc, priority 2020, published 2025).
Entries after “also recorded” stand apart in the source; their conditions may differ.

Tests used:
[1] = Cytotoxicity HepG2 (MTS reduction); assay type: cell-based; conditions: human, HepG2 cells; read-out: Cytotox HepG2 EC50
human PF4 = molecular target: T1, human PF4 (Homo sapiens, UniProt P02776); assay: Inhibition of PF4 tetramer formation (BS3 cross-linking, SDS-PAGE); assay type: biochemical; conditions: for IC50: read-out: IC50 of PF4 tetramer formation inhibition; for inhibition at 5 µM: 5 μM inhibitor; for inhibition at 10 µM: 10 μM inhibitor (column A)
T1 construct: PF4 is a 70 amino acid, lysine-rich 7.8 kDa platelet-specific protein; made in house; host or cells: Escherichia coli BL21DE3 pLysS (pT7-7) and/or Drosophila S2 cells
T1 sequence (P02776 32-101): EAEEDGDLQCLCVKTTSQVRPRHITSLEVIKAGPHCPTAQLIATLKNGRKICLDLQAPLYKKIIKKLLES
Procedure, shortened: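 Monomer, dimer, trimer and tetramer fractions were quantified by densitometry after reducing 12% SDS-PAGE of BS3-cross-linked (0.2 mM, 30 min, room temperature) PF4. Before cross-linking, 10 μg/ml E. coli-expressed human WT PF4 in PBS was exposed to compound for 15 min at 37° C or 60 min at room temperature; controls lacked compound.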

[2] = molecular target: T2, ultra large complexes (ULC) between PF4 tetramers and heparin (Homo sapiens, UniProt P02776); assay: Inhibition of formation of ultra large complexes (ULC) of PF4 tetramers and heparin; assay type: biochemical; conditions: IC50 values are +/−20%
T2 construct: platelet factor 4 which is a 70 amino acid, lysine-rich, 7.8 kDa platelet-specific protein
T2 sequence (P02776 32-101): T1 sequence (P02776 32-101)
Protocol: Since ULCs are formed as part of a dynamic equilibrium between heparin and PF4, dynamic light scattering (DLS) was performed to measure the ability of the exemplified compounds to disrupt preformed ULCs. Samples were analyzed and included PF4 incubated in the absence or presence of unfractionated heparin (UFH) for 20 min at room temperature at PF4 to heparin ratios (PHR) of 1:0 (no heparin), 2:1, and 0.64:1. The samples were then analyzed using photon correlation spectroscopy on a DynaPro® DLS instrument and Dynamics® software (V6.7.6; […]) to obtain correlation function. The results of the DLS analysis indicate the percentage of ULCs and small PF4 particles. Data for the small particles (a population of particles with a mean hydrodynamic diameter of about 1 nm) and data for the large particles (a population of particles with a mean hydrodynamic diameter of about 300 nm) is assessed. Data are expressed as the percent of total intensity from each measurement, the mean of 10 measurements, and representative of two such experiments.
ELISA measurement and gel filtration measurement of ULC inhibition were performed as described in International Patent Publication No. WO2013/142328, which is incorporated herein by reference. Similarly, assays in which heparin concentrations are varied to determine the effect on ULC inhibition were performed as described in that publication.
Certain compounds were evaluated for their ability to inhibit formation of ultra large complexes (ULC) between PF4 tetramers and heparin.

[3] = Cytotoxicity NIH3T3 (MTS reduction); assay type: cell-based; conditions: mouse, NIH3T3 cells, 1 hour exposure in the absence of serum, N = 3, read-out: Cytotox NIH3T3 EC50
[4] = Human microsome stability; assay type: in vitro ADME; conditions: Human microsomes, compound conc = 0.5 μM, n = 1; read-out: Human microsome stability Half life t1/2
Excerpt: (§1) Certain exemplified compounds were examined for ADMET (absorption, distribution, metabolism, excretion and toxicity) profiling using conventional assays with the results shown in the Tables 3A-3C below.

[5] = Mouse microsome stability; assay type: in vitro ADME; conditions: Mouse microsomes, compound conc = 0.5 μM, n = 1; read-out: Mouse microsome stability Half life t1/2
Excerpt: as §1

human platelets = assay: PF4-KKO induced platelet activation, P-selectin, human platelets; assay type: cell-based; conditions: for PF4-KKO induced platelet activation using P-selectin as a marker: human platelet activation assays, 20 μM and 40 μM (FIGS. 8 and 9)
[6] = tested on: FcγRIIA transgenic murine platelets; assay: PF4-KKO induced platelet activation, P-selectin, FcγRIIA transgenic murine platelets; assay type: cell-based, mouse; conditions: for normalized P-selectin levels: FIG. 22; for preventing P-selectin expression: FcγRIIA transgenic murine platelets, 50 μM compound, 37.5 μg/ml PF4, 50 μg/ml KKO (FIGS. 14-21)
Protocol: Whole blood was diluted with 1× Tyrode buffer (5 mM N-2-hydroxyethylpiperazine-N′-2-ethanesulfonic acid, 0.1% BSA, 134 mM NaCl, 0.3 mM NaH2PO4, 3 mM KCl, 2 mM MgCl2, 12 mM NaHCO3, 5 mM glucose) with 0.02 U/ml apyrase and 1 μM PGE1 and centrifuged at 100 g for 10 min. Platelet rich plasma (PRP) was carefully removed and centrifuged at 1000 g for 5 min. Platelet pellet was resuspended in Tyrode buffer with 0.02 U/ml apyrase at 2×10^8/ml concentration at 37° C. PF4 antagonists are diluted in Tyrode buffer, and are incubated with 10 μg/ml human PF4 purified protein at room temperature for 30 min. The PF4-drug complex is then incubated with 1×10^8/ml platelets with 1 mM CaCl2, 0.1% BSA at 37° C. for 10 min. 40 μg/ml KKO and 10 μg/ml anti-CD62P (P-selectin) antibodies are added into the reaction. One milliliter ice-cold PBS is added to each reaction after 5 min of incubation. Labelled platelets are then analyzed by a BD Accuri C6 flow cytometer. The results are represented by both the mean fluorescence intensity and by the percentage of positive platelets.
37.5 μg/ml PF4 with/without 50 μM of the exemplified compound incubated with 3×10^7/ml platelets; 50 μg/ml KKO.

[7] = read-out: % inhibition of PF4 tetramer formation at single concentration of inhibitor

Row | SMILES | EC50 [1] | IC50 (human PF4) | IC50 [2] | EC50 at 1 h [3] | half-life at 0.5 μM [4] | half-life at 0.5 μM [5] | inhibition at 100 µM (human PF4; 100 μM inhibitor, read-out: % inhibition of PF4 tetramer formation at single concentration of inhibitor) | inhibition at 30 µM (human PF4; 30 μM inhibitor, read-out: % inhibition of PF4 tetramer formation at single concentration of inhibitor) | PF4-KKO induced platelet activation using P-selectin as a marker (human platelets) | preventing PF4-KKO induced platelet activation using P-selectin as a marker (human platelets; human platelets (FIG. 12)) | normalized P-selectin levels [6] | preventing P-selectin expression [6] | inhibition at 5 µM (human PF4; [7]) | inhibition at 10 µM (human PF4; [7])
1 | CC(=O)C1(C(=O)OC(C)(C)C)C(=O)c2ccc(Oc3ccc4c(c3)C(=O)C(C(C)=O)(C(=O)OC(C)(C)C)C4=O)cc2C1=O (stereo not drawn) [Example 5, 5-(2-acetyl-2-carbo-t-butoxy-2,3-dihydro-1,3dioxo-1h-inden-6-yloxy)-2-acetyl-2-carbo-t-butoxy-2,3-dihydro-1,3-dioxo-1h-indene] | > 3350 µg/mL | 10.4 µM | 10 µM | > 3350 µg/mL | – | – | – | – | – | – | – | – | – | –
2 | O=C(c1ccc2c(c1)C(=O)CC2=O)c1ccc2c(c1)C(=O)CC2=O [Example 4, 5,5′-carbonylbis(1h-indene-1,3(2h)-dione)] | > 250 µg/mL | 4 µM | 3 µM | > 250 µg/mL | 4.7 min | 1.7 min | 96% | – | – | – | – | – | – | –
3 | CCCNC(=O)C1C(=O)c2ccc(C(=O)c3ccc4c(c3)C(=O)C(C(=O)NCCC)C4=O)cc2C1=O (stereo not drawn) [Example 15, 5,5′-carbonylbis(1,3-dioxo-indan-2-carboxylic acid propylamide)] | > 1000 µg/mL | 3 µM | 11 µM | > 1000 µg/mL | 116 min | 93.8 min | – | 93% | inhibitory | efficacy | – | – | – | –
4 | O=C(O)CCNC(=O)C1C(=O)c2ccc(C(=O)c3ccc4c(c3)C(=O)C(C(=O)NCCC(=O)O)C4=O)cc2C1=O (stereo not drawn) [Example 32, 5,5′-carbonylbis(3-[(1,3-dioxo-indane-2-carbonyl)-amino]-propionic acid)] | – | 2.99 µM | – | – | 54 min | > 180 min | – | – | inhibitory | – | modulate the activity of normalized P-selectin; also recorded: inhibition | efficacy | 86% | 91%
5 | COc1ccccc1NC(=O)C1C(=O)c2ccc(C(=O)c3ccc4c(c3)C(=O)C(C(=O)Nc3ccccc3OC)C4=O)cc2C1=O (stereo not drawn) [Example 28, 5,5′-carbonylbis(1,3-dioxo-indan-2-carboxylic acid (2-methoxyphenyl)-amide)] | – | 0.64 µM | – | – | > 180 min | 52.2 min | – | – | inhibitory | – | modulate the activity of normalized P-selectin; also recorded: inhibition | efficacy | 82% | 65%
